These results are taken from patent US20260240838A1, “USE OF NITRONE COMPOUNDS OR PHARMACEUTICALLY ACCEPTABLE SALTS THEREOF IN COMBINATION WITH SGLT-2 INHIBITORS” (GUANGZHOU MAGPIE PHARMACEUTICALS CO., LTD., priority 2022, published 2026).

One data set relates to IL-6. The data set is described as follows: Detection of the level of IL-6 in serum of db/db mice by ELISA kit (Example 1). The following applies: for content of IL-6 in the serum of model animals (in words): alone or in combination with a SGLT-2 inhibitor (such as Entegliflozin); for Changes in IL-6: 6 weeks, serum of db/db mice, compared to Model group. In kind it is in vivo. The source says: (§1) Db/db mice are type II diabetes mice caused by leptin receptor gene defect located on chromosome 4. They began to drink, eat, urinate and be obese at the age of 4 weeks. With the increase of age, they have obvious characteristics of hyperglycemia, hyperlipidemia and insulin resistance. Their pathogenesis is very similar to that of type II diabetes patients. With the aggravation of diabetes, db/db mice have a series of complications. The main pathological changes of kidney tissue are dilation of glomerular mesangial interstitium, thickening of glomerular basement membrane, excessive accumulation of extracellular matrix, etc. It is a good model to study the early morphological changes of DKD kidney.
(§2) 6-week-old db/db mice were given adaptive feeding for 1 week (i.e. 7 weeks), with TBN and TN-2 administered separately and in combination with Empagliflozin twice a day (fixed at 9:00-10:00 am and 3:00-4:00 pm, with an interval of 6 hours), for a continuous 6 weeks of administration.
(§3) After 6 weeks of administration, the whole blood was left to stand at room temperature for 1 hour. Then, it was transferred to a centrifuge and centrifuged at 3000 rpm for 10 minutes. The upper layer of serum was taken out and placed in an EP tube and stored in a −20° C. freezer for later use. Detection the level of IL-6 and IL-1β in serum of mice in each group using ELISA kit.
A general note: An ELISA detects its analyte on a solid surface through an enzyme-linked reagent.

Data set [1] deals with db/db mice. The data set is described as follows: Blood glucose testing in db/db mice, TBN/TN-2 alone and with Empagliflozin (Example 1). In kind it is in vivo. The note with it: for blood sugar (in words): in combination with a SGLT-2 inhibitor; for Changes in blood glucose: 6 weeks, compared to Model group.
Excerpt: as §1, §2
During the experiment, blood was collected from the tail vein of mice before the start of administration (7 weeks old) to measure their blood glucose levels; After the completion of administration (at 13 weeks of mouse age, i.e. the end of the experiment), serum was taken and the blood glucose levels of each group of mice were measured using a fully automated biochemical analyzer.

In data set [2] the test system is db/db mice. The data set is described as follows: Detection of 24-hour urinary microalbumin in db/db mice by ELISA kit (Example 1). Type of data set: in vivo. The following applies: for 24-hour urinary microalbumin (in words): in combination with a SGLT-2 inhibitor; for Changes in urinary microalbumin: 24-hour urine, compared to Model group.
Excerpt: as §1, §2
Db/db mice were tested for 24-hour urinary microalbumin at 4 and 6 weeks after drug treatment. Each group of mice was placed in a metabolic cage, drinking water freely, and 24-hour urine samples were collected. After centrifugation and precipitation, the levels of microalbuminuria in the 24-hour urine of each group of mice were detected using an ELISA kit.

Data set [3] deals with db/db mice. Kind of data set: Urinary albumin creatinine ratio in db/db mice. In kind it is in vivo. The note with it: in combination with a SGLT-2 inhibitor.
The conditions of data set [4]: FAERS-based analysis, rank order; cited from earlier work.
The test system of another data set is IL-1β. Kind of data set: Detection of the level of IL-1β in serum of db/db mice by ELISA kit (Example 1). In kind it is in vivo. The following applies: 6 weeks, compared to Model group.
Excerpt: as §1, §2, §3

The subject of data set [5] is Patients of type II diabetic kidney disease. Kind of data set: Clinical trial of TBN and TBN + SGLT2i: change of UACR relative to baseline (Example 3). In kind it is in vivo, human. On the procedure: The present invention adopts a test design of multicenter, randomized, double-blind, placebo-controlled parallel control.
Subjects of the experiments: Patients of type II diabetic kidney disease were taken as the subjects in the experiments (all signed the informed consent form). In at least 2 of the 3 morning urine in the screening period, the urinary microalbumin/creatinine ratio (UACR) is of ≥30 mg/g and <300 mg/g.
The medication schedule: Administration of 180 consecutive days. In this example, SGLT2i is commercially available SGLT2i, selected from Engliflozin, Dapagliflozin, and Cargliflozin: Engliflozin once daily, 10 mg; Dapagliflozin once daily, 10 mg; Kagliflozin once daily, 100 mg. In the three subjects in the 300 mg TBN+SGLT2i group, one subject took Engliflozin and two subjects took Dapagliflozin; in the three subjects in the 600 mg TBN+SGLT2i group, all took Dapagliflozin; in the […] in the 1200 mg TBN+SGLT2i group, two subjects took Canagliflozin, one subject took Entegliflozin, and one subject took Dapagliflozin; in the SGLT2i group, one subject took Dapagliflozin.

[6] abbreviates: Empagliflozin 2.5 mg/kg twice/day i.g.
Setting [7] is: Empagliflozin 5 mg/kg twice/day i.g.

Consider `Cc1nc(/C=[N+](\[O-])C(C)(C)C)c(C)nc1/C=[N+](\[O-])C(C)(C)C` [TN-2], for which the “content of IL-6 in the serum of model animals (in words)” value in the data set with IL-6 is “significantly reduce”. In the data set on db/db mice [1], the “blood sugar (in words)” value is given as “synergistically lower”. For the same compound, the “24-hour urinary microalbumin (in words)” value in the data set on db/db mice [2] was “reduce”. Besides, the “urinary albumin creatinine ratio (in words)” value in the data set on db/db mice [3] is recorded as “reduce”.

Regarding `CCOc1ccc(Cc2cc([C@@H]3O[C@H](CO)[C@@H](O)[C@H](O)[C@H]3O)ccc2Cl)cc1` [Dapagliflozin], the “signal intensity comparison of urinary tract infections” value in data set [4] is given as “dapagliflozin>canagliflozin>empagliflozin”.

In the case of `Cc1nc(C)c(/C=[N+](\[O-])C(C)(C)C)nc1C` [TBN, tetramethylpyrazine nitrone], the “Changes in IL-6” value is given as −36.43% in the data set with IL-6 (TBN 10 mg/kg twice/day i.g.) and −58.34% in the data set with IL-6 (TBN 30 mg/kg twice/day i.g.). Further, in the data set on IL-6, the “content of IL-6 in the serum of model animals (in words)” value was “significantly reduce”. The “Changes in blood glucose” value in the data set on db/db mice [1] (TBN 10 mg/kg twice/day i.g.) is reported as −0.80%; with db/db mice [1] (TBN 30 mg/kg twice/day i.g.), −17.13%. In addition, the “blood sugar (in words)” value in the data set on db/db mice [1] is reported as “synergistically lower”. Moreover, the “Changes in urinary microalbumin” value is −0.61% in the data set on db/db mice [2] (TBN 10 mg/kg twice/day i.g.) and −23.09% in the data set with db/db mice [2] (TBN 30 mg/kg twice/day i.g.). For the same compound, the “24-hour urinary microalbumin (in words)” value in the data set with db/db mice [2] is recorded as “reduce”. Also, the “urinary albumin creatinine ratio (in words)” value in the data set with db/db mice [3] is recorded as “reduce”. Besides, the “Changes in IL-1β” value in the data set on IL-1β (TBN 10 mg/kg twice/day i.g.) was −5.88%; in the data set with IL-1β (TBN 30 mg/kg twice/day i.g.), 0.20%. Also, the “Percentage of changes in UACR relative baseline, Day 90 LS Mean” value in data set [5] (TBN 300 mg twice/day po, n = 18, Day 90) is recorded as −1.48%; in data set [5] (TBN 600 mg twice/day po, n = 19, Day 90) it was −43.32%; in data set [5] (TBN 1200 mg twice/day po, n = 14, Day 90), −37.08%.

`OC[C@H]1O[C@@H](c2ccc(Cl)c(Cc3ccc(O[C@H]4CCOC4)cc3)c2)[C@H](O)[C@@H](O)[C@@H]1O` [Empagliflozin, reference compound]: the entries for the “Changes in IL-6” value in the data set with IL-6 (setting [6]) and in the data set on IL-6 (setting [7]) were −8.55% and −75.05%, respectively. For the same compound, the “Changes in blood glucose” value with db/db mice [1] (setting [6]) is reported as −38.03%; in the data set on db/db mice [1] (setting [7]), −44.33%. Also, the entries for the “Changes in urinary microalbumin” value in the data set with db/db mice [2] (setting [6]) and with db/db mice [2] (setting [7]) were −4.18% and −18.62%, respectively. For the same compound, the “signal intensity comparison of urinary tract infections” value in data set [4] is “dapagliflozin>canagliflozin>empagliflozin”. The “Changes in IL-1β” value with IL-1β (setting [6]) was −2.36%; in the data set on IL-1β (setting [7]) it was −16.32%.
